Ki data for 19 compounds are collected here from ChEMBL document CHEMBL1137264, “Carbonic anhydrase inhibitors. Inhibition of the cytosolic human isozymes I and II, and the transmembrane, tumor-associated isozymes IX and XII with substituted aromatic sulfonamides activatable in hypoxic tumors” (Bioorg Med Chem Lett, 2006).

Usually Ki stands for a measure of affinity in units of concentration, obtained from inhibition or displacement. High values mean lower affinity, low ones higher affinity.

Molecules are shown by their SMILES. Values joined by “and” are separate entries in the source; they are usually repeats but may differ in a detail not shown here. Identical values can stand only once.

Targets include Carbonic anhydrase 9 (Homo sapiens, UniProt Q16790); Carbonic anhydrase 1 (Homo sapiens, UniProt P00915); Carbonic anhydrase 2 (Homo sapiens, UniProt P00918); Carbonic anhydrase 12 (Homo sapiens, UniProt O43570).

Chain of Carbonic anhydrase 1 (P00915 whole entry): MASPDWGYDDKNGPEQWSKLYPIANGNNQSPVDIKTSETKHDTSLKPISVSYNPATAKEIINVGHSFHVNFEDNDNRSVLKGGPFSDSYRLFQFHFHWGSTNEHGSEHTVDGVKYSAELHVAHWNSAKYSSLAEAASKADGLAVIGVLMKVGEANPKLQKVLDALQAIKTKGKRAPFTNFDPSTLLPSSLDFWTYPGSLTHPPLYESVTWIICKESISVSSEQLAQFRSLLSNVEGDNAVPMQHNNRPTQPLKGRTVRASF
Chain of Carbonic anhydrase 12 (O43570 whole entry): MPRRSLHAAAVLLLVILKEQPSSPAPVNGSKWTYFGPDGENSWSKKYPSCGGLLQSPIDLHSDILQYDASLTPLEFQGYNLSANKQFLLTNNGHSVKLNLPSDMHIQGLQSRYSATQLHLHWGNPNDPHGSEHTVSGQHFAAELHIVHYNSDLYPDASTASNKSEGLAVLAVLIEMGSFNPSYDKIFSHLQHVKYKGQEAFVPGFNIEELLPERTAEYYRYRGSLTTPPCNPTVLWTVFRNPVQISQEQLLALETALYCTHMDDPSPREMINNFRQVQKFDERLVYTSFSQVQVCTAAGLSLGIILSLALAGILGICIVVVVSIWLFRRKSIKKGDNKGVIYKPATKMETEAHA
Description for Carbonic anhydrase 12: Inhibition of human cloned CA12 catalytic domain by CO2 hydration assay
Description for Carbonic anhydrase 2: Inhibition of human cloned CA2 by CO2 hydration assay
Description for Carbonic anhydrase 9: Inhibition of human cloned CA9 catalytic domain by CO2 hydration assay

`COC(=O)CS(=O)(=O)c1cc(Cl)c(C)cc1S(N)(=O)=O`: the Ki at Carbonic anhydrase 9 was found to be 1.84 µM; at Carbonic anhydrase 1, 5.1 µM; at Carbonic anhydrase 2, 0.0096 µM; at Carbonic anhydrase 12 it was 1.35 µM.
Take `NS(=O)(=O)c1cc(C(=O)N2CCCC2)c(Cl)cc1SSc1cc(Cl)c(C(=O)N2CCCC2)cc1S(N)(=O)=O`: the Ki on Carbonic anhydrase 9 turned out to be 0.766 µM; at Carbonic anhydrase 1 it was 22.1 µM; at Carbonic anhydrase 2, 4.62 µM; at Carbonic anhydrase 12 it was 0.19 µM.
In the case of `Cc1cc(S(N)(=O)=O)c(S(=O)(=O)C(C)C(=O)NN)cc1Cl` (stereo unspecified), the Ki on Carbonic anhydrase 9 stood at 3.42 µM; on Carbonic anhydrase 1, 14.2 µM; at Carbonic anhydrase 2 it was 0.536 µM; at Carbonic anhydrase 12, 2.42 µM.
Regarding `NS(=O)(=O)c1cc(C(=O)NCc2ccccc2)c(Cl)cc1S`, the Ki on Carbonic anhydrase 9 amounted to 0.0409 µM; on Carbonic anhydrase 1, 19.7 µM; at Carbonic anhydrase 2 it was 0.0199 µM; on Carbonic anhydrase 12, 0.0356 µM.
The corresponding values for `Cc1cc(S(N)(=O)=O)c(S(=O)(=O)CC(=O)O)cc1Cl` are 5.44 µM, 11.6 µM, 0.547 µM and 2.4 µM.
`Cc1cc(S(N)(=O)=O)c(S/C(=N\NS(=O)(=O)c2ccccc2)c2ccccc2)cc1Cl`: the inhibition constant Ki was more than 10 µM at Carbonic anhydrase 9, 113 µM at Carbonic anhydrase 1, more than 10 µM at Carbonic anhydrase 2 and more than 10 µM on Carbonic anhydrase 12.
Turning to `NS(=O)(=O)c1cc(C(=O)NCc2ccccc2)c(Cl)cc1SSc1cc(Cl)c(C(=O)NCc2ccccc2)cc1S(N)(=O)=O`, the Ki was more than 10 µM on Carbonic anhydrase 9, 82.1 µM at Carbonic anhydrase 1, 6.1 µM on Carbonic anhydrase 2 and more than 10 µM at Carbonic anhydrase 12.
For the compound `NS(=O)(=O)c1cc2c(cc1SSc1cc3c(cc1S(N)(=O)=O)S(=O)(=O)NCN3)NCNS2(=O)=O`, the Ki was 0.78 µM on Carbonic anhydrase 9, 310 µM at Carbonic anhydrase 1, more than 10 µM at Carbonic anhydrase 2 and 1.97 µM at Carbonic anhydrase 12.
Regarding `NS(=O)(=O)c1cc2c(cc1S)NCNS2(=O)=O`, the Ki was 0.113 µM and 0.115 µM at Carbonic anhydrase 9; 7.5 µM and 7.3 µM at Carbonic anhydrase 1; 0.0086 µM and 0.0087 µM on Carbonic anhydrase 2; 0.117 µM and 0.118 µM at Carbonic anhydrase 12.
On to `CSc1cc2c(cc1S(N)(=O)=O)S(=O)(=O)NCN2`, for which the Ki is 0.139 µM at Carbonic anhydrase 9, 10.9 µM at Carbonic anhydrase 1, 3.8 µM at Carbonic anhydrase 2 and 0.108 µM on Carbonic anhydrase 12.
On to `CCOC(=O)c1cc(S(N)(=O)=O)c(S)cc1Cl`, for which the Ki on Carbonic anhydrase 9 was determined as 0.056 µM; at Carbonic anhydrase 1, 6.4 µM; on Carbonic anhydrase 2, 0.0185 µM; on Carbonic anhydrase 12 it was 0.053 µM.
`CC/C(=N/Nc1ccc([N+](=O)[O-])cc1)Sc1cc(Cl)c(C)cc1S(N)(=O)=O`: the Ki was more than 10 µM on Carbonic anhydrase 9, 220 µM at Carbonic anhydrase 1, more than 10 µM on Carbonic anhydrase 2 and more than 10 µM on Carbonic anhydrase 12.
As for `COC(=O)C(C)S(=O)(=O)c1cc(Cl)c(C)cc1S(N)(=O)=O` (stereo unspecified), the Ki at Carbonic anhydrase 9 is 1.61 µM; on Carbonic anhydrase 1 it was 5.8 µM; at Carbonic anhydrase 2 it was 0.244 µM; on Carbonic anhydrase 12, 1.1 µM.
Taken in the same sequence, the figures for `CCOC(=O)c1cc(S(N)(=O)=O)c(SSc2cc(Cl)c(C(=O)OCC)cc2S(N)(=O)=O)cc1Cl` were more than 10 µM, 7.8 µM, 5.57 µM and more than 10 µM.
Regarding `Cc1cc(S(N)(=O)=O)c(S(=O)(=O)C(C)C(=O)O)cc1Cl` (stereo unspecified), the Ki on Carbonic anhydrase 9 worked out at 5 µM; on Carbonic anhydrase 1, 27.3 µM; at Carbonic anhydrase 2, 0.806 µM; at Carbonic anhydrase 12, 3.05 µM.
Take `Cc1cc(S(N)(=O)=O)c(S/C(=N\Nc2ccc([N+](=O)[O-])cc2)c2ccccc2)cc1Cl`: the Ki at Carbonic anhydrase 9 is more than 10 µM; at Carbonic anhydrase 1 it was 379 µM; at Carbonic anhydrase 2, more than 10 µM; on Carbonic anhydrase 12, more than 10 µM.
`CC(C)CSc1cc2c(cc1S(N)(=O)=O)S(=O)(=O)NCN2`: the Ki was more than 10 µM on Carbonic anhydrase 9, 392 µM on Carbonic anhydrase 1, 2.68 µM on Carbonic anhydrase 2 and 1 µM at Carbonic anhydrase 12.
Regarding `NS(=O)(=O)c1cc(C(=O)N2CCCC2)c(Cl)cc1S`, the Ki at Carbonic anhydrase 9 amounted to 0.0145 µM; on Carbonic anhydrase 1 it was 2.6 µM; at Carbonic anhydrase 2 it was 0.0196 µM; at Carbonic anhydrase 12, 0.02 µM.
In the case of `Cc1cc(S(N)(=O)=O)c(S(=O)(=O)CC(=O)NN)cc1Cl`, the inhibition constant (Ki) at Carbonic anhydrase 9 turned out to be 1.44 µM; at Carbonic anhydrase 1, 7.7 µM; on Carbonic anhydrase 2 it was 0.0092 µM; on Carbonic anhydrase 12, 1.39 µM.
